Among the data in PMC4324968, “High-Affinity Accumulation of a Maytansinoid in Cells via Weak Tubulin Interaction” (PLoS ONE, 2015) are Kd values, retold here.

For assay [1], the target named is T1, tubulin (αβ-heterodimer, bovine brain; maytansine site on β-tubulin).
T1 construct: with α-tubulin (αβ-heterodimer)
As to the kind of experiment: equilibrium radioligand binding of 3H-S-methyl DM1 to tubulin-loaded liposomes (apparent Kd). Further details: species or system Bos taurus.

In assay [2] the test system is T2, tubulin (microtubule-assembled, in MCF7 cells).
T2 construct: endogenous cellular tubulin in MCF7 cells; with αβ-heterodimer in microtubules
In words: 3H-paclitaxel equilibrium binding to MCF7 cells, Scatchard. In kind it is cell-based.

For `COc1cc2cc(c1Cl)N(C)C(=O)C[C@H](OC(=O)[C@H](C)N(C)C(=O)CCSC)[C@]1(C)O[C@H]1[C@H](C)[C@@H]1C[C@@](O)(NC(=O)O1)[C@H](OC)/C=C/C=C(\C)C2` [S-methyl DM1], in assay [1], the Kd amounted to 21.5 ± 0.07 nM.

In assay [2], `CC(=O)O[C@H]1C(=O)[C@@]2(C)[C@H]([C@H](OC(=O)c3ccccc3)[C@]3(O)C[C@H](OC(=O)[C@H](O)[C@@H](NC(=O)c4ccccc4)c4ccccc4)C(C)=C1C3(C)C)[C@]1(OC(C)=O)CO[C@@H]1C[C@@H]2O` [paclitaxel] yielded a Kd of 60 ± 10 nM.
